Patent publication US20170176436A1, “METHODS (AMACR)” (UNIVERSITY OF BATH, priority 2014, published 2017)
Blank lines part the entries; values can stand above or below the molecule they belong to.

Key:
[1] = target: T1, human recombinant AMACR 1A (Homo sapiens, UniProt Q9UHK6); assay: Colorimetric assay for AMACR, 96-well plate, absorbance at 354 nm; format: biochemical
T1 construct: made in house
T1 sequence (Q9UHK6 1-382): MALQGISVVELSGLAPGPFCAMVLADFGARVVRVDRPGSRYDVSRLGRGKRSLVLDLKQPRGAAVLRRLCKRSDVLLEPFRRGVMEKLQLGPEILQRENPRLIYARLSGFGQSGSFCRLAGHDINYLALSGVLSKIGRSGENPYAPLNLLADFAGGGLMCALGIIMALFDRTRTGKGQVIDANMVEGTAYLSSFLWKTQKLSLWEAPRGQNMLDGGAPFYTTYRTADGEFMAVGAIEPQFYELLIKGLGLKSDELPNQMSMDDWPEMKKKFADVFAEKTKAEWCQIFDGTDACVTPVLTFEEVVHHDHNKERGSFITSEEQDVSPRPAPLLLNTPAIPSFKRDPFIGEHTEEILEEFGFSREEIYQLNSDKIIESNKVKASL
Protocol: Based on this elimination reaction, a colorimetric assay was developed. […] 2,4-dintrophenol was chosen as the leaving group as the pKa of the acid is similar to that of HF.
The elimination reaction is shown in Reaction Scheme 2 below:
The above assay was transferred into a 96-well plate format with the extent of reaction monitored by absorbance at 354 nm. The reaction was carried out in Na2HPO4—NaOH, pH 7.4 in a total volume of 100 μL containing 8.05 μg (0.17 nmoles) of human recombinant AMACR 1A.
The kinetics assay was carried out in a 96 well plate. Substrate stock solutions (at 2× the final concentration) were prepared by serial dilution in a total volume of 150 μL in phosphate buffer (as already described). This solution (50 μL) was transferred into […], such that three identical wells were prepared. The reaction was initiated by adding a 2× stock solution of enzyme (50 μL per well) to the substrate, mixing and measuring the change in absorbance at 354 nm over a 15 minute time course, with data collected every 60 seconds. The reaction was conducted at ambient room temperature, ca. 25° C. The final concentrations of substrate (in the assay, after adding the enzyme) were: 256.3, 180.9, 113.9, 75.9, 50.6, 33.8, 22.5, 15.0 μM.
Rates were determined by plotting the absorbance vs. time in Microsoft Excel. The initial rate was used before the rate starts to reduce due to substrate depletion and other reasons. The rate in absorbance units/min was derived by fitting a straight line to the points and determining the slope from the y=mx+c equation.
The data was converted into nmol/min/mg using the extinction coefficient,^8 the pathlength (calculated by the plate-reader based on the volume of the reaction; 0.33 cm), and the amount of enzyme determined by UV-visible spectroscopy.^1 Kinetic constants were derived using SigmaPlot 12 with the enzyme kinetics macro function. Fitting assumed a single substrate per active site, two active sites per dimer (one active sites per protein molecule), with three repeats of each rate. […] Kinetic data was also calculated using the Direct Linear Plot^3,4 A similar method (with a different enzyme) has also been described.^10

[2] = target: T2, Human AMACR (Homo sapiens, UniProt Q9UHK6); assay: AMACR-catalysed elimination reaction of 3-fluoro-2-methylacyl-CoA esters, monitored by 1H and 19F NMR; format: biochemical
T2 construct: inferred only from purification by metal-chelate chromatography; made in house; host or cells: E. coli Rosetta2 (DE3)
T2 sequence (Q9UHK6 1-382): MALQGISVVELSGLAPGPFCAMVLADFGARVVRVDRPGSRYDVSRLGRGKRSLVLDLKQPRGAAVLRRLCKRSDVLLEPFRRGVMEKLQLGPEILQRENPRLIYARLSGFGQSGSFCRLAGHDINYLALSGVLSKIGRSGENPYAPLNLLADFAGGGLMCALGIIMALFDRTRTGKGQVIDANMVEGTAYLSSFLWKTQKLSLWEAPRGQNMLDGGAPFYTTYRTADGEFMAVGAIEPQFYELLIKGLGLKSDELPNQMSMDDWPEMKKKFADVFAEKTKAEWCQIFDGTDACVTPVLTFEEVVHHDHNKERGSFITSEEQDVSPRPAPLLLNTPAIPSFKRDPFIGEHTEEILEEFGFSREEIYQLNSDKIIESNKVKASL
Protocol: (§1) Human AMACR was expressed in E. coli Rosetta2 (DE3) at 22° C. overnight shaking at 220 r.p.m.^1 Cells (˜2 g) were lysed using the ‘one shot’ in ˜30 mL buffer supplemented with 250u benzonase (Novagen) and stirred with 1.5% (w/v) N-lauroyl-sarcosine at 4° C. for 1 hour. Following centrifugation, enzyme was purified by metal-chelate chromatography, dialysed into 20 mM NaH2PO4—NaOH, pH 7.4 and stored at −80° C.^1,2
(§2) Assays were conducted in buffer containing ^2H2O and 100 μM acyl-CoA substrate as previously described, with negative controls contain heat-inactivated enzyme. ±-Fenoprofenoyl-CoA or 2-methyldecanoyl-CoA was used as known substrates.^1,2 Assays were quenched by heating to 50° C. for 10 minutes before ^1H NMR analysis (500.13 MHz). Conversion of substrates was quantified by conversion of the 2-Me doublet at ca. 1.0 p.p.m. into a singlet.^1,2 Kinetic data was analysed as previously described^1,2 and parameters were obtained using SigmaPlot 12 with the Direct Linear Plot^3,4 and non-linear fitting of Michaelis-Menten parameters.
(§3) The 3S and 3R stereoisomers of the 3-fluoro-2-methylacyl-CoA esters were then incubated with AMACR and the reaction was monitored by ^1H and ^19F NMR. Interconversion of 3S and 3R by chiral inversion was expected to be observed. […] The synthetic product compound was produced from the E-acid, which had the alkene proton at 6.92 p.p.m., whilst the Z-isomer has an alkene proton at 6.09 p.p.m. in the ^1H NMR spectrum. The presence of fluoride was observed as a characteristic signal at −120 p.p.m. in the ^19F spectrum. Increasing amounts of the unsaturated product compound and inorganic fluoride were observed upon incubation of either 3S or 3R with AMACR for longer times. This reaction was not observed in negative controls containing heat-inactivated enzyme. […] This observed irreversibility of the elimination reaction probably results from the high levels of hydration of the fluoride anion.

[3] = target: T1, human recombinant AMACR 1A; assay: Measurement of inhibitor potency using the elimination assay (1H NMR); format: biochemical
Protocol: Assays were performed as previously described in a total volume of […] in the presence of ^2H2O. using human recombinant AMACR 1A^2. In the following table inhibitor at 100 μM was incubated with enzyme for 10 minutes at room temperature. The reaction was initiated by addition of a stock solution of substrate (2S,3R-3-fluoro-2-methyldecanoyl-CoA) to a final concentration of 100 μM, followed by incubation at 30° C. for 1 hour. The reaction was terminated by heating at ca. 55° C. for 10 minutes. The cooled reaction mixture analysed by ^1H NMR by the appearance of the unsaturated product peak at ca. 1.75 ppm and comparison to the residual substrate peak at 1.1 ppm.^5 Assays were compared to a positive control (no inhibitor) and conversion levels are corrected for levels in negative controls (boiled enzyme). The data in the table is the average of two […] repeats.
Similar assays were also conducted where inhibitor and substrate were added to the enzyme simultaneously.

[4] = target: T2, Human AMACR; assay: AMACR chiral inversion reaction of a known substrate, 1H NMR assay; format: biochemical
Protocol: as §1, §2

[5] = substrate: CCCCCCC[C@@H](F)[C@@H](C)C(=O)SCCNC(=O)CCNC(=O)[C@H](O)C(C)(C)COP(=O)(O)OP(=O)(O)OC[C@H]1O[C@@H](n2cnc3c(N)ncnc32)[C@H](O)[C@@H]1OP(=O)(O)O; assay: AMACR-catalysed elimination reaction of 3-fluoro-2-methylacyl-CoA esters, monitored by 1H and 19F NMR; format: biochemical, human; conditions: other: elimination reaction; Direct Linear Plot; 1H NMR; pH 7.4
Protocol: as §1, §2, §3

[6] = substrate: CCCCCCCCC(C)C(=O)SCCNC(=O)CCNC(=O)[C@H](O)C(C)(C)COP(=O)(O)OP(=O)(O)OC[C@H]1O[C@@H](n2cnc3c(N)ncnc32)[C@H](O)[C@@H]1OP(=O)(O)O; assay: AMACR chiral inversion reaction of a known substrate, 1H NMR assay; format: biochemical, human; conditions: other: chiral inversion reaction; pH 7.4
Protocol: as §1, §2

[7] = elimination of 2,4-dinitrophenoxide, pH 7.4, ca. 25° C., absorbance 354 nm
[8] = elimination reaction, Direct Linear Plot, 1H NMR
[9] = inhibitor 100 μM incubated with enzyme 10 minutes at room temperature before substrate, enzyme 0.06 mg/mL, substrate 2S,3R-3-fluoro-2-methyldecanoyl-CoA 100 μM, 30° C. 1 hour
[10] = inhibitor and substrate added to the enzyme simultaneously, enzyme 0.12 mg/mL

- Vmax [2, 8]: ~50.6 nmol·min^−1·mg polypeptide^−1
- background conversion in negative controls (non-enzymatic elimination) ([2]; negative controls with heat-inactivated enzyme): significant background conversion
Molecule: CCCCCCC[C@@H](F)[C@@H](C)C(=O)SCCNC(=O)CCNC(=O)[C@H](O)C(C)(C)COP(=O)(O)OP(=O)(O)OC[C@H]1O[C@@H](n2cnc3c(N)ncnc32)[C@H](O)[C@@H]1OP(=O)(O)O [Compound 11, (2R,3R)-3-Fluoro-2-methyldecanoyl-CoA]

- Average reduction in conversion [3, 9]: 14.1%
Molecule: CC(C(=O)SCCNC(=O)CCNC(=O)C(O)C(C)(C)COP(=O)(O)OP(=O)(O)OCC1OC(n2cnc3c(N)ncnc32)C(O)C1OP(=O)(O)O)c1cccc(Oc2ccccc2)c1 (stereo not shown) [Fenoprofenoyl-CoA]

- Average reduction in conversion [3, 9]: 3.5%
Molecule: CC(C(=O)SCCNC(=O)CCNC(=O)C(O)C(C)(C)COP(=O)(O)OP(=O)(O)OCC1OC(n2cnc3c(N)ncnc32)C(O)C1OP(=O)(O)O)c1ccc(-c2ccccc2)c(F)c1 (stereo not shown) [Flurbiprofenoyl-CoA]

- Average reduction in conversion [3, 9]: 14.5%
- Average reduction in conversion [3, 10]: 11%
Molecule: CC(C)Cc1ccc(C(C)C(=O)SCCNC(=O)CCNC(=O)C(O)C(C)(C)COP(=O)(O)OP(=O)(O)OCC2OC(n3cnc4c(N)ncnc43)C(O)C2OP(=O)(O)O)cc1 (stereo not shown) [Ibuprofenoyl-CoA]

- Average reduction in conversion [3, 9]: 4.5%
Molecule: CC(C(=O)SCCNC(=O)CCNC(=O)C(O)C(C)(C)COP(=O)(O)OP(=O)(O)OCC1OC(n2cnc3c(N)ncnc32)C(O)C1OP(=O)(O)O)c1cccc(C(=O)c2ccccc2)c1 (stereo not shown) [Ketoprofenoyl-CoA]

- Average reduction in conversion [3, 9]: 4.7%
Molecule: COc1ccc2cc(C(C)C(=O)SCCNC(=O)CCNC(=O)C(O)C(C)(C)COP(=O)(O)OP(=O)(O)OCC3OC(n4cnc5c(N)ncnc54)C(O)C3OP(=O)(O)O)ccc2c1 (stereo not shown) [Naproxenoyl-CoA]

Further lines, the molecule ahead of its results:

Molecule: CC(COc1ccc([N+](=O)[O-])cc1[N+](=O)[O-])C(=O)SCCNC(=O)CCNC(=O)[C@H](O)C(C)(C)COP(=O)(O)OP(=O)(O)OC[C@H]1O[C@@H](n2cnc3c(N)ncnc32)[C@H](O)[C@@H]1OP(=O)(O)O (mixture of isomers) [colorimetric substrate, racemic 3-(2,4-dinitrophenoxy)-2-methyl-propanoyl-CoA]
- conversion efficiency relative to anti-3-fluoro-2-methyldecanoyl-CoA, as judged by kcat/Km [1]: ~35%
- colour produced on incubation with active AMACR ([1]; absent in negative controls using heat-inactivated enzyme): intense yellow colour
- Km [1, 7]: 18 µM
- Vmax [1, 7]: 27.61 nmol/min/mg
- kcat [1, 7]: 0.023 s⁻¹

Molecule: CCCCCCC[C@@H](F)[C@H](C)C(=O)SCCNC(=O)CCNC(=O)[C@H](O)C(C)(C)COP(=O)(O)OP(=O)(O)OC[C@H]1O[C@@H](n2cnc3c(N)ncnc32)[C@H](O)[C@@H]1OP(=O)(O)O [Compound 5, (2S,3R)-3-Fluoro-2-methyldecanoic-CoA]
- Km [2, 8]: 21 µM
- Vmax [2, 8]: 96.5 nmol·min^−1·mg polypeptide^−1
- kcat [2, 8]: 0.0758 s⁻¹

Molecule: CCCCCCCC[C@@H](C)C(=O)SCCNC(=O)CCNC(=O)[C@H](O)C(C)(C)COP(=O)(O)OP(=O)(O)OC[C@H]1O[C@@H](n2cnc3c(N)ncnc32)[C@H](O)[C@@H]1OP(=O)(O)O [R-2-methyldecanoyl-CoA]
- Average reduction in conversion [3, 10]: 13.6%

Molecule: CCCCCCCCC(C)C(=O)SCCNC(=O)CCNC(=O)[C@H](O)C(C)(C)COP(=O)(O)OP(=O)(O)OC[C@H]1O[C@@H](n2cnc3c(N)ncnc32)[C@H](O)[C@@H]1OP(=O)(O)O (stereo partly shown) [S-2-methyldecanoyl-CoA]
- Average reduction in conversion [3, 10]: 7.2%
- Vmax [4]: 39.3 nmol·min^−1·mg^−1 polypeptide

B1: Human AMACR (Homo sapiens) (protein)
chain: MALQGISVVELSGLAPGPFCAMVLADFGARVVRVDRPGSRYDVSRLGRGKRSLVLDLKQPRGAAVLRRLCKRSDVLLEPFRRGVMEKLQLGPEILQRENPRLIYARLSGFGQSGSFCRLAGHDINYLALSGVLSKIGRSGENPYAPLNLLADFAGGGLMCALGIIMALFDRTRTGKGQVIDANMVEGTAYLSSFLWKTQKLSLWEAPRGQNMLDGGAPFYTTYRTADGEFMAVGAIEPQFYELLIKGLGLKSDELPNQMSMDDWPEMKKKFADVFAEKTKAEWCQIFDGTDACVTPVLTFEEVVHHDHNKERGSFITSEEQDVSPRPAPLLLNTPAIPSFKRDPFIGEHTEEILEEFGFSREEIYQLNSDKIIESNKVKASL
notes: inferred only from purification by metal-chelate chromatography; made in house; host or cells: E. coli Rosetta2 (DE3)
- Km [5]: 40 µM
- kcat [5]: 0.0397 s⁻¹
- kcat/Km [5]: 993 M⁻¹ s⁻¹
- Km [6]: 277 µM
- kcat [6]: 0.0310 s⁻¹
- kcat/Km [6]: 112 M⁻¹ s⁻¹
